Test results reported in patent US20100009922A1, “HYPOTENSIVE PEPTIDES FROM SOY PROTEINS AND METHOD OF PREPARATION” (priority 2008, published 2010).
Where no end group is shown, it is not given here.

Each substance was assayed against T1, rabbit lung angiotensin converting enzyme (Oryctolagus cuniculus, UniProt P12822) (assay: ACE inhibitory activity, FAPGG substrate). Conditions: synthetic peptides, 37° C., 30 minutes, read-out: ACE Inhibition (IC50).
T1 construct: rabbit lung angiotensin converting enzyme (Sigma Chemical Company, St. Louis, Mo.); purchased Sigma Chemical Company, St. Louis, Mo; host or cells: rabbit lung (tissue-derived enzyme)
T1 sequence (P12822 34-1310): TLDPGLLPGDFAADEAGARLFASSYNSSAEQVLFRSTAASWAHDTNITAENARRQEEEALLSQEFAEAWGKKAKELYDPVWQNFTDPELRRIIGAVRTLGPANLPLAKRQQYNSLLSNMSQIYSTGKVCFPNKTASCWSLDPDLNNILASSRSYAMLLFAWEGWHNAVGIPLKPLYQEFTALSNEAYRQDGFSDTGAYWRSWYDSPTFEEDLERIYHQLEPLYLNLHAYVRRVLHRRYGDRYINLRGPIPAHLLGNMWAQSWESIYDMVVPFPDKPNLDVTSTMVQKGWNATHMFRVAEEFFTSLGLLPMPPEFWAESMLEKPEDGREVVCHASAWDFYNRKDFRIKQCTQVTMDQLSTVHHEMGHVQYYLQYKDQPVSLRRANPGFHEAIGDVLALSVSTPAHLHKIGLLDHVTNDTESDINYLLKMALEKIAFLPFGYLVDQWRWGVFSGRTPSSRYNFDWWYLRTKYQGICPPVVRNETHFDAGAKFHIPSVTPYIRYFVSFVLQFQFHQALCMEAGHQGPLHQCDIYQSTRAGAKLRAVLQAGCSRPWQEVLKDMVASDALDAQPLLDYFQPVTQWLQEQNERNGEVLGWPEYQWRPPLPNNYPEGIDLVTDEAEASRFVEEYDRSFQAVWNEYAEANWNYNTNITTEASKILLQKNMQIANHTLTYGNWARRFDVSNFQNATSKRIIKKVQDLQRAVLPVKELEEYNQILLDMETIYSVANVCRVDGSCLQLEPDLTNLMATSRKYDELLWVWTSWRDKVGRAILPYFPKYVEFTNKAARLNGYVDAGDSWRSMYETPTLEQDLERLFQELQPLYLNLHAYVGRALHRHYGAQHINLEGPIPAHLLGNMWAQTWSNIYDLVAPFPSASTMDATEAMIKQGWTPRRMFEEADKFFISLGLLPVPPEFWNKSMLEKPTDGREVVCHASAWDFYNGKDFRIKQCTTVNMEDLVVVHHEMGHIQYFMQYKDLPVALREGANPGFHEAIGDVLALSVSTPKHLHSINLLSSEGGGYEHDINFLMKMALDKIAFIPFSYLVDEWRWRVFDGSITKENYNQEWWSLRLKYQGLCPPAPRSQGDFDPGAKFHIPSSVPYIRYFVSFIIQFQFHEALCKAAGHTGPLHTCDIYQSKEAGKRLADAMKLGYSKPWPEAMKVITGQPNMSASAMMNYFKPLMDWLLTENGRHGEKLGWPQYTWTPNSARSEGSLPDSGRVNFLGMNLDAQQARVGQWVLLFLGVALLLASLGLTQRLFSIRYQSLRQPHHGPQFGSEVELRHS
Type: biochemical
Description: Angiotensin-I-converting enzyme inhibitory activity was determined using FAPGG as the substrate. A mixture containing 100 μl of 1 mM FAPGG, 20 μl of the soy peptide solution, and 80 μl of reaction solution (100 mM Tris-HCl, pH 8.3, containing 0.3 M NaCl, 10 mM ZnCl2, and 0.025 U/ml rabbit lung angiotensin converting enzyme (Sigma Chemical Company, St. Louis, Mo.)) was added to a 96-well plate. The reaction was carried out at 37° C. for 30 minutes and the absorbance of the mixture was read using a spectrophotometry set at 340 nm to determine the enzyme activity. 20 μl of distilled water was used in the place of the soy peptide solution in each assay as a negative control. The inhibitory potency (IC50) of each fraction of the soy peptides was determined from plots of percentage inhibition vs. log 10[soy peptide] (mg/L). IC50 value of Angiotensin-I-converting enzyme, defined as the amount of soy peptide that produced a 50% inhibition of ACE activity, was determined for selected fractions. Captopril was used as the positive control.

IC50 | Substance
66 ± 15.3 µM | PIPFP [PP-5, PIPFP]
46.1 ± 5.2 µM | PVNKP [PP-5-1, PVNKP]
7.2 ± 1.7 µM | IPRPRPRP [IP-8, IPRPRPRP]
121 ± 1.7 µM | LKPDNR [LR-6, LKPDNR]
